Experimental data: patent US3946013A, “1,3-BIS(Beta-ethylhexyl)-5-amino-5-methylhexahydropyrimidine-pyridine- 3-carboxylate, process for its preparation and pharmaceutical compositions containing this compound” (Wulfing; Johann A., priority 1973, dated 1976)
Counter-ions that a name gives are not always drawn.

Experiments:
[1] = solubility (testability in the bacteriostatic test); assay type: physicochemical; settings: could not be tested in bacteriostatic test
[2] = tested on: female NMRI mice; assay: LD50 acute toxicity in mice (Litchfield and Wilcoxon); assay type: in vivo; settings: for Toxicity, LD50 i.p. / Toxicity, LD50 p.o.: female NMRI mice 20-30 g, 10 days observation, 14400 min
[3] = tested on: bacterial parent strains (Escherichia coli, Proteus vulgaris, Pseudomonas aeruginosa); assay: bacteriostatic activity (serial dilution in thioglycolate nutrient solution); assay type: cell-based; settings: for concentration at which activity is (still) shown (text): after 6 days at 30°C; for Bacteriostatic activity in relation to concentration (table): solutions containing 100 mg hexetidine, incubated at 30°C for 6 days
Procedure: For a determination of bacteriostatic activity, solutions of hexetidine, hexetidine oxalate and hexetidine nicotinate having the following compositions were compared: The inoculum suspension was obtained by inoculation of a sterile Petri dish containing nutrient agar (standard I) with a test culture of bacterial parent strains (Escherichia coli, Proteus vulgaris, Pseudomonas aeruginosa) and incubation at 30°C for 24 hours. The suspension was either used immediately or stored at +4°C. The organisms grown in the Petri dish were elutriated with 5 ml physiological brine solution and diluted 1:10 with the same solution to a volume of 50 ml. Then 250 ml double concentrated thioglycolate solution (60 g/l) were mixed with 100 drops (about 5 ml) of the above 1:10 diluted primary culture of bacterial parent strains and shaken to obtain a uniform suspension. Serial dilutions were prepared for each of the above-mentioned compound solutions in the following concentrations, each comprising 10 test tubes of […]: hexetidine per ml: 1,000; 500; 250; 125; 62.5; about 31; about 16; about 8; about 4; about 2. Next, 5 ml double concentrated thioglycolate nutrient solution inoculated with the test organisms were added to each test tube by means of a pipet. Each test tube thus contained 50% of the final concentration. […]

[4] = antibacterial activity, general statement; assay type: cell-based
[5] = LD50 acute toxicity in mice (Litchfield and Wilcoxon); assay type: in vivo; settings: mouse, in vivo, po; female NMRI mice 20-30 g; 10 days observation
[6] = Saski and Shah 1965; Barkley et al. 1960/1961; cited from earlier work
[7] = listed as Hexetidine nicotinate

CCCCC(CC)CN1CN(CC(CC)CCCC)CC(C)(N)C1 (stereo not drawn) [hexetidine cinnamate]
solubility [1]: extreme insolubility
Toxicity, LD50 i.p. ([2]; listed as Hexetidine cinnamate): 54 mg/kg
Toxicity, LD50 p.o. ([2]; listed as Hexetidine cinnamate): 1,740 mg/kg

CCCCC(CC)CN1CN(CC(CC)CCCC)CC(C)(N)C1 (stereo not drawn) [hexetidine nicotinate, 1,3-bis(β-ethylhexyl)-5-amino-5-methylhexahydropyrimidine pyridine-3-carboxylate]
Toxicity, LD50 i.p. [2, 7]: 63 mg/kg
Toxicity, LD50 p.o. [2, 7]: 1,830 mg/kg
toxicity of hexetidine after salt formation with nicotinic acid ([2]; relative to hexetidine, mice): substantially reduced
concentration at which activity is (still) shown (text) [3, 7]: 62.5 γ
Bacteriostatic activity in relation to concentration (table) [3, 7]: 62.5 γ
antibacterial activity compared with hexetidine [4]: particularly favorable increase in antibacterial activity

CCCCC(CC)CN1CN(CC(CC)CCCC)CC(C)(N)C1 (stereo not drawn) [hexetidine oxalate]
Toxicity, LD50 i.p. ([2]; listed as Hexetidine oxalate): 23 mg/kg
Toxicity, LD50 p.o. ([2]; listed as Hexetidine oxalate): 970 mg/kg
concentration at which activity is (still) shown (text) ([3]; listed as Hexetidine oxalate): > 500 γ
Bacteriostatic activity in relation to concentration (table) ([3]; listed as Hexetidine oxalate): 500 γ

CCCCC(CC)CN1CN(CC(CC)CCCC)CC(C)(N)C1 (stereo not drawn) [hexetidine, 1,3-bis(β-ethylhexyl)-5-amino-5-methylhexahydropyrimidine]
Toxicity, LD50 i.p. ([2]; listed as Hexetidine): 33 mg/kg
LD50 at 240 h [5]: 960 mg/kg
concentration at which activity is (still) shown (text) [3]: 125 γ
Bacteriostatic activity in relation to concentration (table) ([3]; listed as Hexetidine): 125 γ
antibacterial activity (words, literature) [6]: remarkable antibacterial activity
